We go through 1 compound from patent publication US6875766B2, “Use of riboflavin and flavin derivatives as chitinase inhibitors” (Bayer AG, priority 2000, dated 2005).

Where only a bound is given, the exact number is not on record here.

For assay [1], the system named is Vibrio alginolyticus chitinase (Kyowa Medex). Briefly: Chitinase inhibitory activity against Vibrio alginolyticus chitinase. The format is biochemical. Particulars: at 100 μM (37° C.). On the procedure: (§1) The chitinase inhibitory activity was determined as already described [Omura, S., Arai, N., Yamaguchi, Y., Masuma, R., Iwai, Y., Namikoshi, M., Turberg, A., Kölbl, H., Shiomi, K., J. Antibiot., 53, 603-608 (2000)].

Assay [2] concerns Periplaneta americana, third instar. Kind of assay: Injection test with Periplaneta larvae. It counts as in vivo. Particulars: 2 μg injected per larva; observed over 23 days. On the procedure:
Injection test with Periplaneta larvae
Test animals: Periplaneta americana, third instar
The compounds are prepared in aqueous solution (0.1 N acetic acid) and diluted as required. Using a 10 μl Hamilton syringe, 1 μl of the 20 or 2 μg were injected behind the 3rd pair of legs closely underneath the abdominal cavity of the cockroach larvae. Solvent (0.1 N acetic acid) was applied as control and 10 μg allosamidine as positive control. Batches of twenty cockroach larvae were treated per concentration and compound. On day 1, the control mortality and the initial mortality caused essentially by artificial effects during the injection were determined. If this initial mortality was less than 50%, the experiment was continued. The cockroach larvae were placed on filter paper in standard Petri dishes (9.5 cm Ø), and a quarter of a wafer was added. The ecdysis rate of the control animals and of the treated cockroach larvae was observed over a period of 23 days, and larval mortality and inhibition of ecdysis were recorded after days 1, 5 and 23. The efficacy is calculated using the following formula. [formula]

Assay [3] deals with Lucilia cuprina chitinase. Briefly: Chitinase inhibitory activity (IC50) against Lucilia cuprina chitinase. The format is biochemical. On the procedure:
as §1

Assay [4] concerns Streptomyces griseus chitinase (Sigma). Kind of assay: Chitinase inhibitory activity against Streptomyces griseus chitinase. It counts as biochemical. Particulars: at 100 μM (37° C.). On the procedure:
as §1

The test system of assay [5] is Lucilia cuprina endochitinase. Kind of assay: Chitinase test with soluble extracts from Lucilia cuprina puppae. The conditions noted are these: cytosolic extract of late pupae, MUF-triacetylchitotriose substrate. The format is biochemical. How it is done:
Chitinase test with soluble extracts from Lucilia cuprina puppae
Test animals: Cytosol of Lucilia cuprina
The substances, which are dissolved in DMSO, are provided on 384-well microtiter plates in a concentration of 2 mM, the first four columns being empty. The substances are diluted 1:40 with 100 mM NPP pH 7.0 (50 μM). 5 μl of each of these dilutions are transferred to a 384-well test plate, starting with column 5. Into the first two columns there are pipetted in each case as negative control, into the third and fourth column in each case 5 μl of 5×10^-6 M allosamidin in 2.5% DMSO in 100 mM NPP pH 7.0 5 μl 2.5% DMSO in 100 mM NPP pH 7.0 as positive control.
The substances are incubated for 20 minutes at room temperature with 2.5 μg of cytosolic extract of late Lucilia cuprina puppae in 10 μl of 100 mM sodium phosphate buffer pH 7.0 and 10 μl of 100 μM methylumbelliferyl (MUF-triacetylchitotriose). The reaction is quenched by addition of 25 μl of 0.5 M glycine buffer 2 M sodium hydroxide, pH 10.4. The inhibition is determined by measuring the relative fluorescence at an excitation of 360±40 nm and an emission of 460±40 nm. The test substances are evaluated in comparison with the inhibition of the enzyme by allosamidin. The inhibition of the release of MUF is a measure for the efficacy of the inhibitor. In subsequent tests, concentration series in the range of from 100 nM to 200 μM are tested, and the release of MUF is measured every 2 minutes before the reaction is quenched.
Compounds which lead to more than 50% inhibition of chitinase at maximum reaction velocity at 100 μM are assessed as effective.

`Cc1cc2nc3c(=O)[nH]c(=O)nc-3n(C[C@H](O)[C@H](O)[C@H](O)CO)c2cc1C` [compound 1, riboflavin]: in assay [1], the “inhibition of the Vibrio alginolyticus chitinase” value is reported as “no inhibition”. The “mortality against Periplaneta americana third instars” value in assay [2] is reported as “More than 50%”. Also, the half-maximal inhibitory concentration (IC50) was determined as 0.38 µM in assay [3] (20° C.) and 2.1 µM in assay [3] (37° C.). For the same compound, the “inhibition of the Streptomyces griseus chitinase” value in assay [4] is “no inhibition”. For the same compound, the “inhibition of the Lucilia cuprina endochitinase” value in assay [5] (10 μM) is >>50%; in assay [5] (100 μM), >>50%; in assay [5] (200 μM) it was >>>50%.

One may read the IC50 as the concentration that inhibits the measured activity by half. A higher IC50 goes with lower potency.
